From ChEMBL document CHEMBL1817634, “One-pot synthesis of pyrazoline derivatised carbazoles as antitubercular, anticancer agents, their DNA cleavage and antioxidant activities” (2011) come the findings set out here.

The test system of experiment [1] is Mycobacterium tuberculosis. Briefly: Antitubercular activity against Mycobacterium tuberculosis H37Rv after 3 weeks by turbidity assay. The note with it: 504 h. It counts as functional.
The test system of experiment [2] is A498. The experiment is described as follows: Anticancer activity against human A498 cells assessed as cell growth at 10 ug/mL by sulforhodamine B assay. The note with it: read-out: Activity. The experiment is classed as functional.
In experiment [3] the test system is A498. The experiment is described as follows: Anticancer activity against human A498 cells assessed as cell growth at 20 ug/mL by sulforhodamine B assay. It counts as functional. The note with it: read-out: Activity.
The test system of experiment [4] is A498. Briefly: Anticancer activity against human A498 cells assessed as cell growth at 40 ug/mL by sulforhodamine B assay. The experiment is classed as functional. The note with it: read-out: Activity. On the technique in general: The SRB assay estimates cell density from bound dye.
Experiment [5] relates to A498. Briefly: Anticancer activity against human A498 cells assessed as cell growth at 80 ug/mL by sulforhodamine B assay. It counts as functional. The note with it: read-out: Activity.
Experiment [6] relates to A498. The experiment is described as follows: Cytotoxicity against human A498 cells. The experiment is classed as functional.
For experiment [7], the system named is A549. Briefly: Anticancer activity against human A549 cells assessed as cell growth at 10 ug/mL by sulforhodamine B assay. The experiment is classed as functional. The note with it: read-out: Activity.
The subject of experiment [8] is A549. The experiment is described as follows: Anticancer activity against human A549 cells assessed as cell growth at 20 ug/mL by sulforhodamine B assay. The note with it: read-out: Activity. The experiment is classed as functional.
The subject of experiment [9] is A549. The experiment is described as follows: Anticancer activity against human A549 cells assessed as cell growth at 40 ug/mL by sulforhodamine B assay. The experiment is classed as functional. The note with it: read-out: Activity.
Experiment [10] deals with A549. The experiment is described as follows: Anticancer activity against human A549 cells assessed as cell growth at 80 ug/mL by sulforhodamine B assay. The note with it: read-out: Activity. It counts as functional.
Experiment [11] relates to A549. The experiment is described as follows: Cytotoxicity against human A549 cells. The experiment is classed as functional.
The next experiment has as its system Nucleic Acid. The experiment is described as follows: Induction of Escherichia coli DNA cleavage at 100 ug after 2 hrs by agarose gel electrophoresis. The experiment is classed as nucleic-acid assay.
Experiment [12] in a line: Antioxidant activity assessed as potassium ferric cyanide reducing power at 10 ug after 20 mins by spectrophotometry. The experiment is classed as functional.
The nature of experiment [13]: Antioxidant activity assessed as potassium ferric cyanide reducing power at 50 ug after 20 mins by spectrophotometry. It counts as functional.
Experiment [14] can be described thus: Antioxidant activity assessed as potassium ferric cyanide reducing power at 100 ug after 20 mins by spectrophotometry. The experiment is classed as functional.

In brackets after ≈: the same amount, converted by molar mass. Activity calls are given as the source filed them.

What is called MIC is the smallest concentration in the dilution series that meets the test's criterion for growth inhibition. Low readings indicate greater potency, high ones weaker potency. In general, GI50 refers to the concentration at which growth is held to half of that of the control. A high value points to lower sensitivity of the cells. The term LC50 denotes the concentration lethal to half of the exposed cells or organisms. Low values mean greater toxicity, high ones lower toxicity. Broadly, the TGI is the concentration at which net growth stops. A high value points to less potent growth arrest. With `CC1CC(c2ccc3[nH]c4c(c3c2)CCCC4)=NN1` (stereo not drawn), the minimum inhibitory concentration (MIC) in [1] worked out at 3.5 µg/mL (≈ 13.8 µM). In addition, the growth at 10 µg/mL was 80% with A498 [2] and 90.2% in the experiment with A549 [7]. For the same molecule, the growth at 20 µg/mL in the experiment on A498 [3] came to 82%; with A549 [8] it was 81.6%. Further, the growth at 40 µg/mL with A498 [4] is 85%; with A549 [9], 75.7%. The growth at 80 µg/mL with A498 [5] turned out to be 4%; with A549 [10], 12.1%. In addition, the GI50 with A498 [6] worked out at 55.2 µg/mL (≈ 218 µM); in the experiment with A549 [11] it was 52.5 µg/mL (≈ 207 µM). Besides, the LC50 in the experiment with A498 [6] and in the experiment with A549 [11] was greater than 70 µg/mL in each case. Also, the TGI in the experiment on A498 [6] and with A549 [11] was greater than 70 µg/mL in each case. The result in the experiment with Nucleic Acid was inactive. The reducing power in experiment [12] is 0.02 absorbance; in experiment [13], 0.105 absorbance; in [14], 0.13 absorbance.

Molecule `Clc1cccc(C2CC(c3ccc4[nH]c5c(c4c3)CCCC5)=NN2)c1` (stereo not drawn) came in with a minimal inhibitory concentration (MIC) in [1] of 4.5 µg/mL (≈ 12.9 µM). In addition, the growth at 10 µg/mL in the experiment on A498 [2] was 100%; with A549 [7] it was 81.6%. For the same molecule, the growth at 20 µg/mL with A498 [3] stood at 100%; in the experiment with A549 [8], 76.2%. Further, the growth at 40 µg/mL in the experiment with A498 [4] was 97.9%; with A549 [9], 69.4%. Also, the growth at 80 µg/mL in the experiment with A498 [5] stood at 33.5%; with A549 [10], 15.3%. Also, the GI50 came out at 74.3 µg/mL (≈ 212 µM) in the experiment with A498 [6] and 49.8 µg/mL (≈ 142 µM) in the experiment with A549 [11]. Moreover, the LC50 in the experiment on A498 [6] and in the experiment on A549 [11] was greater than 80 µg/mL each time. In addition, the TGI in the experiment with A498 [6] and with A549 [11] was greater than 80 µg/mL each time. Moreover, in the experiment with Nucleic Acid, the result was inactive. Besides, the results for the reducing power in experiment [12], in [13] and in experiment [14] were 0.015 absorbance, 0.066 absorbance and 0.147 absorbance, respectively.
